Patent US20240398725A1, “NANOPARTICLES FOR CANCER TREATMENT” (priority 2021, published 2024)

How the values were obtained:
SW872 = assay: MTS assay, doxorubicin IC50 in parental cell line SW872; format: cell-based; details: Homo sapiens
From the text: (§1) The dedifferentiated liposarcoma cell line (SW872) is one of the earliest STS model systems that has been extensively studied in preclinical investigations (Dodd 2010, Stratford 2012).
(§2) The SW872-DXR model was derived from the commercial cell line SW872. The resistance to doxorubicin was initiated in 2D cultures, by adding increased concentrations of doxorubicin every 2 weeks, starting from the IC50 concentrations of doxorubicin of the “parental” cell line SW872. The resistance of this cell line was verified by 3-(4,5-dimethylthiazol-2-yl)-5-(3-carboxymethoxyphenyl)-2-(4-sulfophenyl)-2H-tetrazolium (MTS) assay.

SW872-DXR = assay: MTS assay, doxorubicin IC50 in doxorubicin-resistant SW872-DXR; format: cell-based; details: Homo sapiens
From the text: as §1, §2

COc1cccc2c1C(=O)c1c(O)c3c(c(O)c1C2=O)C[C@@](O)(C(=O)CO)C[C@@H]3O[C@H]1C[C@H](N)[C@H](O)[C@H](C)O1 [doxorubicin] gave an IC50 (SW872) of roughly 200 nM and an IC50 (SW872-DXR) greater than 1000 nM.
